From patent EP0408108A2, “Pharmaceutical compositions containing acrylic acid derivatives and their use in the medicine” (RICHTER GEDEON VEGYESZETI GYAR R.T., priority 1989, dated 1991)
Values after ≈ are worked out from the molar mass of the structure shown.

Assays:
[1] = test system: chronic ulcer model induced by acetic acid; experiment: Assay of a chronic ulcer model induced by acetic acid (Tagaki et al); format: in vivo, rats; details: from day 5 to day 10 after operation, sacrificed day 15
Description: 2)Assay of a chronic ulcer model induced by acetic acid
The assay was carried out in the following manner. Abdominal wall of femal rats previously fasted for 24 hours was incised under ether anaesthesia. A 20% solution of acetic acid (25 µl) was injected to the subserosus layer of the glandular part of the stomach near the pylorus. Thereafter the abdominal wall was closed and the animal was kept on normal diet, by providing feed and water ad libitum. The treatment was started 5 days after the operation and continued until the 10th day by administering the test compound once a day The animals were sacrificed 15 days after the operation and their stomach was removed. The extent of the ulcer was determined by measuring the diameter of the necrotic regions and calculating their total area. The curative effect of the tested compounds was calculated by the following formula in %: [formula]

[2] = test system: gastric acid secretion; experiment: Assay of the inhibition of gastric acid secretion by using pylorus ligature (Shay et al.); format: in vivo, Wistar rats; details: for inhibition at 10 mg/kg: read-out: % Inhibition in the amount of the acid at a dose of 10 mg/kg p.o. (pretreatment: 30 min)
Description: 3) Assay of the inhibition of gastric acid secretion -by using pylorus ligature
[Shay et al., Gastroenterology, 5, 43-61 (1945)]
Before ligating the pylorus the test compounds suspended with Tween were given orally at a volume of 0.5 ml per […] of body weight to female Wistar rats fasted previously for 20 hours. The animals were sacrificed 4 hours after the operation, and the amount of the acid in the stomach was measured by titration with 0.01N sodium hydroxide solution in the presence of phenolphtalein indicator. The pH value of the content of stomach was measured by using a pH-meter (Radelkis, Type OP-211/1).

[3] = test system: gastric injuries induced by acidic alcohol; experiment: Assay of gastric injuries induced by acidic alcohol (Robert); format: in vivo, rats; details: for ED₅₀ p.o. (pretreatment: 30 min) / ED50: haemorrhagic lesions after acidic alcohol, female rats; for inhibition at 10 mg/kg / ED50: Rattus norvegicus, po, pretreatment 30 min; for inhibition at 10 mg/kg: read-out: % Inhibition at a dose of 10 mg/kg p.o. (pretreatment: 30 min); for ED50: read-out: ED₅₀ p.o. (pretreatment: 30 min)
Description: 1) Assay of gastric injuries induced by acidic alcohol [A. Robert, Gastroenterology, 77, 761-767 (1979)] Female rats weighing about 120 to 150 g fasted for 24 hours were used in this test. Test compounds suspended with Tween 80 were given orally to the animals through an intragastric tube. After a certain period (pretreatment time) acidic alcohol was given through the intragastric tube at a dose or 0.5 ml per 100 g of body weight. The animals were sacrificed after 1 hour, their stomach was removed and incised along the great curve. The length of the reddish-brown strips (haemorrhagic lesions) was measured and the mean total length per stomach was calculated. The biological activity of the test compounds was given compared to the control group.

[4] = test system: Campylobacter pylori; experiment: Activity against Campylobacter pylori by agar diffusion and agar dilution methods; format: cell-based; details: Helicobacter pylori; Campylobacter pylori cultures isolated from 5 different ulcerous patients; read-out: MIC (minimal inhibitory concentration)
Description: The activity of the compounds of formula (I) against Campylobacter pylori was investigated by agar diffusion and agar dilution methods. The experiments were carried out with Campylobacter pylori cultures isolated from 5 different ulcerous patients.

[5] = 10 mg/kg p.o., compared to the control group
[6] = Rattus norvegicus, po, 10 mg/kg p.o., pretreatment 30 min, acid titrated 4 hours after pylorus ligature

Row | Compound | inhibition at 10 mg/kg [3, 5] [%] | inhibition at 10 mg/kg [2, 6] [%] | ED50 [3] [mg/kg] | further results
1 | O=C(O)/C=C/S(=O)(=O)c1ccccc1 [F, 3-phenylsulfonyl-2(E)-propenoic acid] |  |  |  | % Curative effect ([1]; 50 mg/kg p.o. once a day): 37%; % Inhibition in the amount of the acid at a dose of 10 mg/kg p.o. (pretreatment: 30 min) ([2]; 10 mg/kg p.o., acid titrated 4 hours after pylorus ligature): 48%; ED₅₀ p.o. (pretreatment: 30 min) ([2]; p.o., gastric acid secretion, pylorus ligature, 4 hours after operation): 12.0 mg/kg; % Inhibition at a dose of 10 mg/kg p.o. (pretreatment: 30 min) [3, 5]: 86%; ED₅₀ p.o. (pretreatment: 30 min) [3]: 3.4 mg/kg
2 | O=C(O)/C=C\S(=O)(=O)c1ccccc1 [Compound E, 3-phenylsulfonyl-2(Z)-propenoic acid] | 13 |  |  | 
3 | O=C(O)/C=C/S(=O)(=O)c1ccccc1 [H, magnesium bis[3-phenylsulfonyl-2(E)-propenoate]hydrate] | 96 | 63 | 3.2 | % Curative effect ([1]; 30 mg/kg p.o. once a day): 27%; ED50 ([2]; Rattus norvegicus, po, pretreatment 30 min, gastric acid secretion, pylorus ligature, 4 hours after operation, read-out: ED₅₀ p.o. (pretreatment: 30 min)): 10 mg/kg
4 | O=C(O)/C=C/Sc1ccccc1 [B, 3-phenylthio-2(E)-propenoic acid] |  |  | 31 | 
5 | O=C(O)/C=C\[S+]([O-])c1ccccc1 (stereo not drawn) [C, 3-phenylsulfinyl-2(Z)-propenoic acid] | 56 | 15 |  | 
6 | O=C(O)/C=C/Sc1ccccc1 [G, magnesium bis[3-phenylthio-2(E)-propenoate]] |  | 16 |  | 
7 | COC(=O)/C=C/S(=O)(=O)c1ccccc1 [I, methyl 3-phenylsulfonyl-2(E)-propenoate] | 98 | 21 |  | MIC [4]: 250 to 270 µg/mL (≈ 1100 to 1190 µM); % Curative effect ([1]; 30 mg/kg p.o. once a day): 73%
8 | Sucralfat [reference compound] |  |  |  | % Curative effect ([1]; 500 mg/kg p.o. once a day): 55%; ED₅₀ p.o. (pretreatment: 30 min) [3]: 150 mg/kg
9 | O=C(O)/C=C/[S+]([O-])c1ccccc1 (stereo not drawn) [Compound D, 3-phenylsulfinyl-2(E)-propenoic acid] | 64 | 22 | 4.2 | 
